# How the values were obtained:
# FMF-03-145-1 [1] = compound: T1, CCC(=O)Nc1ccc(C(=O)Nc2ccc(Nc3ncc4c(n3)N(C)c3ccc(C)cc3C(=O)N4C)cc2)cc1 [FMF-03-145-1]; assay: increase in dead-cell fraction, 72 h; higher = more death;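 further: breast cancer cell lines in 384-well plates, stained with Hoechst plus LIVE/DEAD far red dye and imaged, cells above an LDR intensity threshold counted dead, Hoechst-negative corpses included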
# Tivantinib/ARQ197 = compound: O=C1NC(=O)[C@@H](c2cn3c4c(cccc24)CCC3)[C@@H]1c1c[nH]c2ccccc12 [Tivantinib/ARQ197]; assay: as above
# Vorinostat = compound: O=C(CCCCCCC(=O)Nc1ccccc1)NO [Vorinostat]; assay: as above
# Torin2 = compound: C1=CC(=CC(=C1)N2C(=O)C=CC3=CN=C4C=CC(=CC4=C32)C5=CN=C(C=C5)N)C(F)(F)F [Torin2]; assay: as above
# [2] = compound: CCCCOc1c(C(=O)c2c(F)cc(C)cc2F)c[nH]c2nncc1-2; assay: as above
# Ipatasertib/GDC0068 = compound: CC(C)NC[C@@H](C(=O)N1CCN(c2ncnc3c2[C@H](C)C[C@H]3O)CC1)c1ccc(Cl)cc1 [Ipatasertib/GDC0068]; assay: as above
# [3] = compound: COc1cccc(OCCCN)c1-c1cc(Nc2cnc(C#N)cn2)n[nH]1
# FMF-03-145-1 [4] = compound: T1, FMF-03-145-1
# Everolimus = compound: CO[C@H]1C[C@@H]2CC[C@@H](C)[C@@](O)(O2)C(=O)C(=O)N2CCCC[C@H]2C(=O)O[C@H]([C@H](C)C[C@@H]2CC[C@@H](OCCO)[C@H](OC)C2)CC(=O)[C@H](C)/C=C(\C)[C@@H](O)[C@@H](OC)C(=O)[C@H](C)C[C@H](C)/C=C/C=C/C=C/1C [Everolimus]
# YKL-5-124 = compound: C=CC(=O)Nc1ccc(C(=O)Nc2[nH]nc3c2CN(C(=O)N[C@H](CN(C)C)c2ccccc2)C3(C)C)cc1 [YKL-5-124]
# Neratinib/HKI272 = compound: CCOc1cc2ncc(C#N)c(Nc3ccc(OCc4ccccn4)c(Cl)c3)c2cc1NC(=O)/C=C/CN(C)C [Neratinib/HKI272]; assay: GR value, 72 h; higher = faster growth (1 = untreated, <0 = killing);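 further: breast cancer and non-malignant breast epithelial lines, nine half-log doses, viable cells counted by Hoechst and LIVE/DEAD dye imaging versus time-zero plates and DMSO controls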
# [5] = compound: CC(=O)c1c(C)c2cnc(Nc3ccc(N4CCNCC4)cn3)nc2n(C2CCCC2)c1=O; assay: as above
# Topotecan = compound: CC[C@@]1(O)C(=O)OCc2c1cc1n(c2=O)Cc2cc3c(CN(C)C)c(O)ccc3nc2-1 [Topotecan]
# Etoposide = compound: COc1cc([C@@H]2c3cc4c(cc3[C@@H](O[C@@H]3O[C@@H]5CO[C@@H](C)O[C@H]5[C@H](O)[C@H]3O)[C@H]3COC(=O)[C@H]23)OCO4)cc(OC)c1O [Etoposide]
# Bleomycin = compound: CC1=C(N=C(N=C1N)[C@H](CC(=O)N)NC[C@@H](C(=O)N)N)C(=O)N[C@@H]([C@H](C2=CN=CN2)OC3C(C(C(C(O3)CO)O)O)OC4C(C(C(C(O4)CO)O)OC(=O)N)O)C(=O)N[C@H](C)[C@H]([C@H](C)C(=O)N[C@@H]([C@@H](C)O)C(=O)NCCC5=NC(=CS5)C6=NC(=CS6)C(=O)NCCC[S+](C)C)O [Bleomycin]; conditions: main component drawn
# Cisplatin = compound: N.N.Cl[Pt]Cl [Cisplatin]
# 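Wherever GR50, 72 h is given: breast cancer and non-malignant breast epithelial cell lines, Deep Dye Drop or Dye Drop imaging, nine half-log doses, GR normalized to time-zero plates and DMSO-only controls.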
cell line,measurement,setting,value
AU565,increase in dead-cell fraction,FMF-03-145-1 [1]; 0.0001 µM,0.0006
same,increase in dead-cell fraction,FMF-03-145-1 [1]; 0.0003162 µM,0.0131
same,increase in dead-cell fraction,FMF-03-145-1 [1]; 0.001 µM,0.0011
same,increase in dead-cell fraction,FMF-03-145-1 [1]; 0.003162 µM,0.0053
same,increase in dead-cell fraction,FMF-03-145-1 [1]; 0.01 µM,0.231
same,increase in dead-cell fraction,FMF-03-145-1 [1]; 0.03162 µM,0.127
same,increase in dead-cell fraction,FMF-03-145-1 [1]; 0.1 µM,0.102
same,increase in dead-cell fraction,Tivantinib/ARQ197; 0.001 µM,-0.0007
same,increase in dead-cell fraction,Tivantinib/ARQ197; 0.003162 µM,-0.0033
same,increase in dead-cell fraction,Tivantinib/ARQ197; 0.01 µM,-0.0012
same,increase in dead-cell fraction,Tivantinib/ARQ197; 0.03162 µM,-0.0029
same,increase in dead-cell fraction,Tivantinib/ARQ197; 0.1 µM,0.0087
same,increase in dead-cell fraction,Tivantinib/ARQ197; 0.3162 µM,0.0601
same,increase in dead-cell fraction,Tivantinib/ARQ197; 1 µM,0.263
same,increase in dead-cell fraction,Tivantinib/ARQ197; 3.162 µM,0.306
same,increase in dead-cell fraction,Tivantinib/ARQ197; 10 µM,0.3
same,increase in dead-cell fraction,Vorinostat; 0.001 µM,-0.0016
same,increase in dead-cell fraction,Vorinostat; 0.003162 µM,0.0067
same,increase in dead-cell fraction,Vorinostat; 0.01 µM,0.0043
same,increase in dead-cell fraction,Vorinostat; 0.03162 µM,0.0012
same,increase in dead-cell fraction,Vorinostat; 0.1 µM,0.0011
same,increase in dead-cell fraction,Vorinostat; 0.3162 µM,-0.0009
same,increase in dead-cell fraction,Vorinostat; 1 µM,0.0099
same,increase in dead-cell fraction,Vorinostat; 3.162 µM,0.142
same,increase in dead-cell fraction,Vorinostat; 10 µM,0.241
same,increase in dead-cell fraction,Torin2; 0.0001 µM,0.0019
same,increase in dead-cell fraction,Torin2; 0.0003162 µM,0.0033
same,increase in dead-cell fraction,Torin2; 0.001 µM,0.0025
same,increase in dead-cell fraction,Torin2; 0.003162 µM,0.0127
same,increase in dead-cell fraction,Torin2; 0.01 µM,0.032
same,increase in dead-cell fraction,Torin2; 0.03162 µM,0.0466
same,increase in dead-cell fraction,Torin2; 0.1 µM,0.0874
same,increase in dead-cell fraction,Torin2; 0.3162 µM,0.0982
same,increase in dead-cell fraction,Torin2; 1 µM,0.121
same,increase in dead-cell fraction,[2]; 0.001 µM,0.0215
same,increase in dead-cell fraction,[2]; 0.003162 µM,-0.004
same,increase in dead-cell fraction,[2]; 0.01 µM,0.0231
same,increase in dead-cell fraction,[2]; 0.03162 µM,0.0204
same,increase in dead-cell fraction,[2]; 0.1 µM,0.0353
same,increase in dead-cell fraction,[2]; 0.3162 µM,0.0286
same,increase in dead-cell fraction,[2]; 1 µM,0.0615
same,increase in dead-cell fraction,[2]; 3.162 µM,0.0772
same,increase in dead-cell fraction,[2]; 10 µM,0.136
same,increase in dead-cell fraction,Ipatasertib/GDC0068; 0.001 µM,0.0001
same,increase in dead-cell fraction,Ipatasertib/GDC0068; 0.003162 µM,0.0023
same,increase in dead-cell fraction,Ipatasertib/GDC0068; 0.01 µM,-0.0023
same,increase in dead-cell fraction,Ipatasertib/GDC0068; 0.03162 µM,-0.0006
same,increase in dead-cell fraction,Ipatasertib/GDC0068; 0.1 µM,0.0018
same,increase in dead-cell fraction,Ipatasertib/GDC0068; 0.3162 µM,0.0082
same,increase in dead-cell fraction,Ipatasertib/GDC0068; 1 µM,0.0032
same,increase in dead-cell fraction,Ipatasertib/GDC0068; 3.162 µM,0.0084
same,increase in dead-cell fraction,Ipatasertib/GDC0068; 10 µM,0.0293
same,"GR50, 72 h",[3],0.000768 µM
same,"GR50, 72 h",FMF-03-145-1 [4],0.00474 µM
same,"GR50, 72 h",Everolimus,0.00185 µM
same,"GR50, 72 h",YKL-5-124,< 0.001 µM
same,GR value,Neratinib/HKI272; 0.0003162 µM,0.834 GR
same,GR value,Neratinib/HKI272; 0.001 µM,0.534 GR
same,GR value,Neratinib/HKI272; 0.003162 µM,0.172 GR
same,GR value,Neratinib/HKI272; 0.01 µM,-0.145 GR
same,GR value,Neratinib/HKI272; 0.03162 µM,-0.318 GR
same,GR value,Neratinib/HKI272; 0.1 µM,-0.388 GR
same,GR value,Neratinib/HKI272; 0.3162 µM,-0.506 GR
same,GR value,Neratinib/HKI272; 1 µM,-0.585 GR
same,GR value,Neratinib/HKI272; 3.162 µM,-0.614 GR
same,GR value,[5]; 0.0003162 µM,1.04 GR
same,GR value,[5]; 0.001 µM,1.05 GR
same,GR value,[5]; 0.003162 µM,1.01 GR
same,GR value,[5]; 0.01 µM,0.919 GR
same,GR value,[5]; 0.03162 µM,0.73 GR
same,GR value,[5]; 0.1 µM,0.579 GR
same,GR value,[5]; 0.3162 µM,0.39 GR
same,GR value,[5]; 1 µM,0.301 GR
same,GR value,[5]; 3.162 µM,0.154 GR
HCC1143,"GR50, 72 h",Topotecan,0.00941 µM
same,"GR50, 72 h",Etoposide,0.463 µM
same,"GR50, 72 h",[3],0.000582 µM
same,"GR50, 72 h",Bleomycin,0.0482 µM
same,"GR50, 72 h",FMF-03-145-1 [4],0.00583 µM
same,"GR50, 72 h",Everolimus,> 10 µM
same,"GR50, 72 h",Cisplatin,0.837 µM
same,"GR50, 72 h",YKL-5-124,< 0.001 µM
same,GR value,Neratinib/HKI272; 0.0003162 µM,0.964 GR
same,GR value,Neratinib/HKI272; 0.001 µM,0.951 GR
same,GR value,Neratinib/HKI272; 0.003162 µM,0.941 GR
same,GR value,Neratinib/HKI272; 0.01 µM,0.864 GR
same,GR value,Neratinib/HKI272; 0.03162 µM,0.876 GR
same,GR value,Neratinib/HKI272; 0.1 µM,0.761 GR
same,GR value,Neratinib/HKI272; 0.3162 µM,0.654 GR
same,GR value,Neratinib/HKI272; 1 µM,0.458 GR
same,GR value,Neratinib/HKI272; 3.162 µM,0.0904 GR
same,GR value,[5]; 0.0003162 µM,0.997 GR
same,GR value,[5]; 0.001 µM,1.01 GR
same,GR value,[5]; 0.003162 µM,1.01 GR
same,GR value,[5]; 0.01 µM,0.955 GR
same,GR value,[5]; 0.03162 µM,0.793 GR
same,GR value,[5]; 0.1 µM,0.652 GR
same,GR value,[5]; 0.3162 µM,0.503 GR
same,GR value,[5]; 1 µM,0.392 GR
same,GR value,[5]; 3.162 µM,0.275 GR

# — the supplement of paper PMC9663587
